Entries after “also recorded” stand apart in the source; their conditions may differ.
Legend:
[1] = peripheral administration in humans; cited from earlier work
AMPA receptors = assay: Field EPSP in rat hippocampal slices (field CA1): amplitude and area of AMPA receptor-mediated synaptic responses; format: cell-based, rat (Sprague-Dawley)
Experimental: The physiological effects of invention compounds can be tested in vitro with slices of rat hippocampus as follows. Excitatory responses (field EPSPs) are measured in hippocampal slices which are maintained in a recording chamber continuously perfused with artificial cerebrospinal fluid (ACSF).
To conduct these tests, the hippocampus was removed from anesthetized, 2 month old Sprague-Dawley rats and in vitro slices (400 micrometers thick) were prepared and maintained in an interface chamber at 35° C. using conventional techniques [see, for example, Dunwiddie and Lynch, J. Physiol. Vol. 276: 353-367 (1978)]. The chamber was constantly perfused at 0.5 ml/min with ACSF containing (in mM): NaCl 124, KCl 3, KH2 PO4 1.25, MgSO4 2.5, CaCl2 3.4, NaHCO3 26, glucose 10 and L-ascorbate 2. A bipolar nichrome stimulating electrode was positioned in the dendritic layer (stratum radiatum) of the hippocampal subfield CA1 close to the border of subfield CA3.
Current pulses (0.1 msec) through the stimulating electrode activate a population of the Schaffer-commissural (SC) fibers which arise from neurons in the subdivision CA3 and terminate in synapses on the dendrites of CA1 neurons. Activation of these synapses causes them to release the transmitter glutamate. Glutamate binds to the postsynaptic AMPA receptors which then transiently open an associated ion channel and permit a sodium current to enter the postsynaptic cell. This current results in a voltage in the extracellular space (the field excitatory postsynaptic potential or field "EPSP") which is recorded by a high impedance recording electrode positioned in the middle of the stratum radiatum of CA1.
For the experiments summarized in FIG. 1, the intensity of the stimulation current was adjusted to produce half-maximal EPSPs (typically about 1.5-2.0 mV). Paired stimulation pulses were given every 40 sec with an interpulse interval of 200 msec (see below). The field EPSPs of the second response were digitized and analyzed to determine amplitude, half-width, and response area. If the responses were stable for 15-30 minutes (baseline), test compounds were added to the perfusion lines for a period of about 15 minutes. The perfusion was then changed back to regular ACSF.
Paired-pulse stimulation was used since stimulation of the SC fibers, in part, activates interneurons which generate an inhibitory postsynaptic potential (IPSP) in the pyramidal cells of CA1. This feed forward IPSP typically sets in after the EPSP reaches its peak. It accelerates the repolarization and shortens the decay phase of the EPSP, and thus could partially mask the effects of the test compounds. One of the relevant features of the feed-forward IPSP is that it can not be reactivated for several hundred milliseconds following a stimulation pulse. This phenomenon can be employed to advantage to eliminate IPSP by delivering paired pulses separated by 200 milliseconds and using the second ("primed") response for data analysis.
These effects are mirrored in the field EPSP, as reported in the literature [see, for example, Staubli et al., Psychobiology supra; Xiao et al., Hippocampus supra; Staubli et al., Hippocampus Vol. 2: 49-58 (1992)].
The variables set forth in the table refer to the following generic structure: [drawing 33]

[2] = tested on: long-term potentiation in CA1 field of hippocampal slices; assay: Promotion of long-term potentiation (LTP) in CA1 field of hippocampal slices; format: cell-based, rat; settings: 1.5 mM, theta burst stimulation; vs absence of drug, p<0.02; FIG. 3
Experimental: Long-term potentiation (LTP; a stable increase in the EPSP size of single responses after brief periods of high frequency stimulation) was elicited in the CA1 field of hippocampal slices in the absence (see FIG. 3, stippled bars, N=6) and in the presence of 1.5 mM of Invention Compound I (see FIG. 3, striped bars, N=5). In the latter case, the amount of potentiation was determined after washing out the test compound and comparing the response size with that before test compound infusion. Data presented in FIG. 3 show the percent increase in the EPSP amplitude (mean and S.D.) at 40, 60, and 90 minutes after LTP induction.
For these studies, field EPSPs in slices of hippocampus were elicited by single stimulation pulses and recorded by extracellular electrodes as described in Example II. After collecting responses every 40 seconds for 20-30 minutes to establish a baseline, LTP was induced with ten short bursts of pulses delivered to the CA3 axons; each burst consisted of four pulses separated by 10 milliseconds; the interval between the bursts was 200 milliseconds. This pattern of axon stimulation mimics a discharge rhythm observed in the hippocampus of animals engaged in learning and is referred to as the "theta burst stimulation paradigm" [see, for example, Larson and Lynch in Science Vol. 232: 985-988 (1986)]. […]

AMPA receptor = assay: Monosynaptic EPSP responses in the hippocampus of anesthetized rats after intraperitoneal injection; format: in vivo, rat (male Sprague-Dawley); settings: i.p. 120-180 mg/kg
Experimental: The time constant for the decay of the EPSP is a measure for the duration of the response.
In these experiments, male Sprague-Dawley rats were anesthetized with urethane (1.7 g/kg) and body temperature was maintained at 37° C. with the use of a heat lamp. A stimulation electrode (two twisted stainless steel wires, 150 μm diameter, insulated with teflon) was placed stereotaxically in the trajectory of the Schaffer collateral (SC) pathway from CA3 to CA1 of the hippocampus (coordinates relative to Bregma: 3.5 mm P., 3.5 mm L., and 3.0-3.7 mm V). A recording electrode (stainless steel, 150 μm diameter, insulated with teflon) was placed in the ipsilateral CA1 field (coordinates relative to Bregma: 3.8 mm P., 2.9 mm L., and 2.2-2.8 mm V.), 100-200 μm ventral to the electrophysiologically-identified CA1 stratum pyramidale (i.e., in the stratum radiatum).
Decay time constants were determined by single exponential fits to the decay phase of the synaptic response and expressed as a percent of the value obtained during the pre-injection control period.

[3] = tested on: hippocampal electroencephalogram; assay: Hippocampal electroencephalogram monitoring for electrographic seizures after i.p. injection; format: in vivo, rat (male Sprague-Dawley); settings: i.p. 120-180 mg/kg

| SMILES | conversion to anisoyl-GABA [1] | increase in area of the field EPSP (AMPA receptors; 100 μM, mean and S.D. of 4 experiments) [%] | increase in response area relative to aniracetam (AMPA receptors; 750 μM) | onset and reversibility of effect (AMPA receptors; 750 μM, 15 min infusion, washout, FIG. 1) | effect on amplitude, duration (half-width) and area of synaptic response (AMPA receptors; 750 μM, 15 min infusion, FIG. 1) | EC50 (AMPA receptors; percent increase in field EPSP amplitude, log dose/response, maximal response of 85% increase assumed where solubility was limiting, read-out: EC50 (field EPSP amplitude)) [µM] | degree of stable long-term potentiation [2] | time to reversal of the increased response duration (AMPA receptor) [min] | effect on duration / decay of synaptic responses (AMPA receptor; anesthetized rats, FIG. 4) | blood-brain barrier passage (AMPA receptor; inferred from EPSP effect) | electrographic seizures [3] |
| --- | --- | --- | --- | --- | --- | --- | --- | --- | --- | --- | --- |
| COc1ccc(C(=O)N2CCCC2=O)cc1 [aniracetam, N-anisoyl-2-pyrrolidinone] | about 80% |  |  |  |  |  |  |  |  |  |  |
| O=C(c1ccc2c(c1)OCCO2)N1CC=CCC1 [Invention Compound I] |  | 46±16 | nine | the effects occur quickly after infusion (horizontal bar) and reverse upon washout; also recorded: rapid onset of action and was fully reversible upon washout | increases the amplitude and duration (measured as half-width) of synaptic responses; also recorded: much larger effect than does aniracetam at twice the concentration; also recorded: the magnitude of the effects was much greater | 500 | increases the magnitude of long-term potentiation; also recorded: nearly twice as large; also recorded: facilitate induction of maximal long-term potentiation in vitro | 60 to 120 | slows the decay rate of synaptic responses; also recorded: rapid increase in the duration of the synaptic response; also recorded: somewhat larger for the second (primed) response; also recorded: reversibly prolong synaptic responses in the hippocampus | sufficient amounts of the test compound cross the blood-brain barrier | in no case did injections of Invention Compound I produce electrographic seizures |
